# Assay results taken from patent publication US7749953B2, “Methods compositions and articles of manufacture for modulating bone growth” (Yissum Research Development Company of the Hebrew …, priority 2002, dated 2010).
# Entries after “also recorded” stand apart in the source; their conditions may differ.
# Columns and labels:
# [1] = tested on: diaphyseal bone marrow derived stromal cells; assay: Cell count, TNSALP activity and mineralization in differentiating primary bone marrow stromal cells (10 days osteogenic medium); format: cell-based, mice; settings: for number of diaphyseal bone marrow derived stromal cells: cells grown 10 days in osteogenic medium, counted after 48 h with ligand
# Method: mRNA analysis: Primary osteoblastogenic cultures of stromal cells were prepared from femoral and tibial diaphyseal bone marrow of WT C57BL/6J mice and grown in “osteogenic medium” containing ascorbic acid, β-glycerophophate and dexamethasone (Sigma) as described by Frenkel et al. (17). Real-time RT-PCR analysis was carried out using Applied Biosystems Assay-on-Demand. Data was normalized GAPDH. Assay ID: GAPDH, Mm99999915_g1; CB1, Mm00432621_s1; CB2, Mm00438286_m1; PTHRc1, Mm00441046_m1; RUNX2, Mm00501578_m1; TNSALP, Mm00475831_m1. RT-PCR analysis was carried out using the primers described by Lee et al. (19).
# (§1) In vitro effect of HU-308: Differentiating primary bone marrow stromal cells and MC3T3 E1 osteoblasts were initially incubated in osteogenic medium for 10 days followed by 2 h serum starvation. Ligands were dissolved in dimethylsulfoxide (DMSO) and further diluted to their final concentration using tissue culture medium. In the primary cultures, cells were counted after 48 h incubation in αMEM supplemented with 4% BSA and ligand. BrdU incorporation was determined in MC3T3 E1 cells after 24 h incubation with HU-308 preceded by 2 h with pertussis toxin (PTX). DNA content, tissue non-specific alkaline phosphatase (TNSALP) activity and calcium were determined in MC3T3 E1 cells grown for 20 days in osteogenic medium and supplemented with HU-308 in the last 14 days. The effect of HU-308 on osteoclast differentiation was measured in the osteoclastogenic system described above, supplemented with HU-308 dissolved initially in DMSO and diluted with medium. HU-308 was also tested in a RAW 264.7 cell grown for 7 days in RANKL-supplemented medium. For osteoclast-like cell counts the cultures were fixed in ethanol and TRAP-stained.
# MC3T3 E1 cells = assay: BrdU incorporation (DNA synthesis) in partially differentiated MC3T3 E1 osteoblastic cells; format: cell-based, murine; settings: 24 h exposure to HU-308
# Method: as §1
# mature MC3T3 E1 cells = assay: DNA content, TNSALP activity and calcium in mature MC3T3 E1 osteoblasts; format: cell-based, murine; settings: 20 days osteogenic medium, HU-308 during last 14 days
# Method: as §1
# [2] = tested on: primary bone marrow derived monocytes; assay: Osteoclast differentiation, TRAP-positive osteoclast-like cell count in bone marrow derived monocyte culture with M-CSF and RANKL; format: cell-based, Mouse; settings: 5 days in the presence of M-CSF and RANKL
# Method: Mouse femoral monocytes were separated on a Ficoll gradient and grown in culture for 5 days in medium containing the osteoclast differentiation factors M-CFS and RANKL as described by Zou et al FASEB J 2002; 16:274-82). At the end of incubation cultures were analyzed for CB2 and FAAH expression by RT-PCR as described above, and were stained with an osteoclast marker tartarate-resistant acid phosphatase for direct observation of differentiated osteoclasts.
# as §1, with “Ligands were dissolved in dimethylsulfoxide (DMSO) and further diluted to their final concentration using tissue culture medium.” left out, “HU-308 was also tested in a RAW 264.7 cell grown for 7 days in RANKL-supplemented medium. For osteoclast-like cell counts the cultures were fixed in ethanol and TRAP-stained.” left out
# RAW 264.7 cells = assay: Osteoclast-like cell count in RAW 264.7 cell culture; format: cell-based; settings: 7-day RAW 264.7 cell culture supplemented with M-CSF
# Method: as §1
# OVX C3H mice = assay: OVX-induced femoral bone loss, μCT and histomorphometry; format: in vivo; settings: HU-308 10 mg/Kg/day i.p.
# Method: Animals: Mice with a deletion of the CNR2 gene (CB2^−/− mice) (9) were crossed for 10 generations to wild type C57BL/6J mice to generate a congenic C57BL/6J CB2^−/− strain. The effect of CB2 signalling on OVX-induced bone loss was analysed in normal C3H mice (Harlan, Israel) due to their high femoral bone density (10), which allows for a substantial amount of bone loss to occur. Because of the low trabecular bone volume density in C57BL/6J females (FIG. 8A), the absolute amount of OVX-induced bone loss in these animals is small and a large sample is required to achieve statistical significance. In addition, the number of calcein labelled packets (see below) in OVX C57BL/6J mice is often too small for the calculation of bone formation parameters in the trabecular compartment. HU-308, synthetic CB2 specific agonist with a MW of 414 g/mol, was prepared as described by Hildebrand et al. (11) and injected intraperitoneally to OVX and control mice once daily as ethanol/emulphor/saline (1:1:18) solution. To study bone formation, newly formed bone was vitally labelled in all reported animals by the fluorochrome calcein (Sigma), injected intraperitoneally (15 mg/Kg) four days and one day prior to sacrifice. Groups of 8-10 mice, 8-11 or 51 weeks old, were used in each experiment. The experimental protocols were approved by the Institutional Animal Care and Use Committee, Faculty of Medicine, the Hebrew University of Jerusalem, Israel and by the Regierungspräsidium Köln for the University of Bonn, Germany.
# Micro-computed tomographic (μCT) analysis: The μCT Analyses were performed as described in Example 1 above.
# Histomorphometry and immunohistochemistry: After μCT image acquisition, the specimens were embedded undecalcified in Technovit 9100 (Heraeus Kulzer, Wehrheim, Germany). Longitudinal sections through the mid-frontal plane were left unstained for dynamic histomorphometry based on the vital calcein double labeling. To identify osteoclasts, consecutive sections were stained for tartrate-resistant acid phosphatase (TRAP) (14). Parameters were determined according to a standardized nomenclature (15). Immunohistochemistry was performed using paraffin-embedded decalcified sections (16) with a polyclonal first antibody raised against the human CB2(20-33) peptide (Cayman Ann Arbor, Mich.; Cat. No. 101550). The same peptide (Cayman Ann Arbor, Mich.; Cat. No. 301550) was used to block protein-antibody complex formation in control staining.
# Statistical Analyses: Differences between CB2^−/− and WT mice were analysed by t-test. HU-308 and vehicle treated OVX and sham-OVX mice were analysed by ANOVA. When significant differences were indicated by ANOVA, group means were compared using the Tukey test for pairwise comparisons.
# [3] = tested on: 11 week-old C3H (Harlan) mice; assay: In vivo bone formation activity, calcein dynamic histomorphometry of distal femoral metaphysis
# Method: The endocannabinoid 2-arachidonoyl glycerol (2AG) and the CB1 cannabinoid receptor antagonist N-(piperidin-1-yl)-5-(4-chlorophenyl)-1-(2,4-dichlorophenyl)4-methyl-1H-pyrazole-3-carboxamide hydrochloride (SR-141761A; Panikashvili et al., Nature 413: 527-531 (2001)] were dissolved in 1:1:18 ethanol:emulfor:saline (v/v/v) vehicle. Different dosages of each agent were daily injected intraperitoneally to 11 week-old C3H (Harlan) mice. 2AG was administered at 0 (vehicle control), 0.5, 5, and 20 mg/Kg body weight per day for 9 days; SR-141761A was administered at 1 and 10 mg/Kg body weight per day for 9 days.
# To assess the in vivo bone formation activity the mice were given 15 mg/Kg body weight calcein intrapertoneally, four days and one day (same day as the last 2AG injection) prior to sacrifice. Femoral bones were separated immediately after sacrifice and subjected, undecalcified, to histological processing. Dynamic bone histomorphometric parameters were analyzed in the distal metaphysis (secondary spongiosa) in unstained longitudinal mid-saggital sections, using the procedure described by Parfitt et al. [J. Bone Miner. Res. 2: 595-610 (1987)]. The data obtained were statistically analyzed by Mann-Whitney U-test to determine significance of differences between the treatments.
# [4] = early differentiation stage (10 days osteogenic medium)
# [5] = 4 weeks from ovariectomy, distal femoral metaphysis
# [6] = SR-141761A up to 10 mg/Kg/day i.p. for 9 days, data not shown
# [7] = 2AG up to 5 mg/Kg/day i.p. for 9 days, followed by a plateau
smiles,measurement,setting,value
"CCCCCCC(C)(C)c1cc(OC)c([C@H]2C=C(CO)C3CC2C3(C)C)c(OC)c1 (single isomer, unassigned; (+)) [HU-308, (+)-(1-a-H,-(3-H,5-a-H)-4-(2,6-dimethoxy-4-(1,1-dimethylhept-yl)phenyl]-6,6 dimethylbicycloj3.1.1]hept-2-ene-2-carbinol]",number of diaphyseal bone marrow derived stromal cells,[1],potently increased
same,TNSALP activity,[1]; [4],unaffected
same,matrix mineralization,[1]; [4],unaffected
same,DNA synthesis (BrdU uptake),MC3T3 E1 cells,stimulation
same,TNSALP activity,mature MC3T3 E1 cells,markedly enhanced
same,accumulation of extracellular mineral,mature MC3T3 E1 cells,markedly enhanced
same,cell number (measured as DNA content),mature MC3T3 E1 cells; compared with partially differentiated cells,milder
same,number of osteoclast-like cells,[2],dose dependently inhibited
same,number of osteoclast-like cells,RAW 264.7 cells,reduced
same,bone formation in the trabecular compartment,OVX C3H mice; 4 weeks from ovariectomy,did not stimulate
same,OVX-induced trabecular bone loss (trabecular bone volume density),OVX C3H mice; [5],attenuation
same,osteoclast number,OVX C3H mice; [5],further inhibited
same,endocortical bone formation,"OVX C3H mice; 4 weeks, mid-diaphysis",vast stimulation
same,size of the medullary cavity,"OVX C3H mice; 4 weeks, mid-diaphysis",significant reduction
same,cortical thickness,"OVX C3H mice; 4 weeks, mid-diaphysis, exceeded OVX and sham-OVX mice",marked increase
"CCCCC/C=C\C/C=C\C/C=C\C/C=C\CCCCOC(CO)CO [Noladin ether, 2-arachidonyl glyceryl ether, reference compound]",number of diaphyseal bone marrow derived stromal cells,[1],no significant effect
"Cc1c(C(=O)NN2CCCCC2)nn(-c2ccc(Cl)cc2Cl)c1-c1ccc(Cl)cc1.Cl [SR-141761A, N-(piperidin-1-yl)-5-(4-chlorophenyl)-1-(2,4-dichlorophenyl)4-methyl-1H-pyrazole-3-carboxamide hydrochloride]",BFR (osteoblastic activity) vs vehicle control,[3]; [6],higher (but not statistically different)
same,MP (osteoblast number) vs vehicle control,[3]; [6],higher and statistically different
"CCCCC/C=C\C/C=C\C/C=C\C/C=C\CCCC(=O)OC(CO)CO [2AG, 2-arachidonoyl glycerol]",uptake of fluorescently labeled calcein in bone tissue (fluorescent histological images),[3]; 2AG 5 mg/Kg/day vs vehicle-treated controls,visibly increased
same,mineralizing perimeter (MP) vs control,"[3]; 2AG 5 and 20 mg/Kg/day i.p. for 9 days, p=0.019",substantially and significantly higher
same,bone-formation rate (BFR) higher than the vehicle control,"[3]; 2AG 5 and 20 mg/Kg/day intraperitoneally for 9 days, p=0.04",up to 44%
same,mineral appositional rate,[3]; 2AG i.p. for 9 days,no significant effect
same,"bone-formation rate (BFR), dose response",[3]; [7],dose-dependent stimulation; also recorded: significant positive dose response effect
same,"mineralizing perimeter (MP), dose response",[3]; [7],dose-dependent increase
